In data set [1] the target is T1, CHD1L (Homo sapiens, UniProt Q86WJ1).
T1 sequence (Q86WJ1 41-540 limits assumed): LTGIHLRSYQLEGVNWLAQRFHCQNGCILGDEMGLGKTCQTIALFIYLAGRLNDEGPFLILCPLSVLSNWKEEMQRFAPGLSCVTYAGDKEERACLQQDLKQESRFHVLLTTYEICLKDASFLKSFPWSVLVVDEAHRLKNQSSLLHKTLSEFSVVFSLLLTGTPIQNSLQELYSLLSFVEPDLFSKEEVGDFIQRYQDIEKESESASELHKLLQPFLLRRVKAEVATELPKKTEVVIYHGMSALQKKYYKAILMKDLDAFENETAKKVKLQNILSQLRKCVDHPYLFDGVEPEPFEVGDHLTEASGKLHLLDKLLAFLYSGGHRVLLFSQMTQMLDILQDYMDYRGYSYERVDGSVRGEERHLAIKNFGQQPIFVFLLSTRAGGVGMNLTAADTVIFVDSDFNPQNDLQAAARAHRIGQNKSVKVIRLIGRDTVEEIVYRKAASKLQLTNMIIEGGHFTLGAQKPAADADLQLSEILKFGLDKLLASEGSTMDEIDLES
The experiment in a line: SAR summary from cat-CHD1L inhibition and cell-based assays. To be noted: SAR statement relative to parent / 1-carbon analogs.

Data set [2] in a line: In vitro mouse microsomal stability. The conditions noted are these: compared with 6.0 / other tested CHD1Li.
Data set [3] relates to SW620 isolated M-Phenotype flank tumors. The experiment in a line: Xenograft antitumor efficacy study. The format is in vivo, athymic nude mice.
The subject of data set [4] is SW620 tumor organoids. The experiment in a line: SW620 tumor organoid viability. The format is cell-based. To be noted: compared to 6.1, 6.2 and 6.3; SI Table S1.
For data set [5], the system named is CSC stemness. To be noted: clonogenic colony formation assay; cited from earlier work.
For data set [6] the following is noted: cited from earlier work.
Data set [7] concerns HCT116 M-Phenotype tumor organoids (VimPro-GFP / EcadPro-RFP). The data set can be described thus: EMT dual-reporter 3D high-content imaging, HCT116 M-Phenotype tumor organoids. The format is cell-based. To be noted: as treatment dose increases.

Data on 16 compounds can be found in article PMC8981980 (Journal of medicinal chemistry, 2022).

Entries after “also recorded” stand apart in the source; their conditions may differ.

Take `Cc1cc(Nc2ccc(NC(=O)CCc3c[nH]c4ccccc34)cc2)nc(N2CCCC2)n1` [6.6, 3-(1H-indol-3-yl)-N-(4-((6-methyl-2-(pyrrolidin-1-yl)pyrimidin-4-yl)amino)phenyl) propanamide]: the “biological activity (cat-CHD1L inhibition and cell-based models)” value in data set [1] was “loss of activity”.
Turning to `Cc1cc(Nc2ccc(NC(=O)Cc3cccs3)cc2)nc(N2CCOCC2)n1` [6.15, N-(4-((6-methyl-2-morpholinopyrimidin-4-yl)amino)phenyl)-2-(thiophen-2-yl)acetamide], the “biological activity (cat-CHD1L inhibition and cell-based models)” value in data set [1] is given as “significant loss in biological activity”.
Still for that read-out and setting: with `Cc1cc(Nc2ccc(NC(=O)CCCc3c[nH]c4ccccc34)cc2)nc(N2CCCC2)n1` [6.7, 4-(1H-indol-3-yl)-N-(4-((6-methyl-2-(pyrrolidin-1-yl)pyrimidin-4-yl)amino)phenyl)butanamide] the entry was “loss of activity”.
For `Cc1cc(Oc2ccc(NC(=O)c3c[nH]c4ccccc34)cc2)nc(N2CCCC2)n1` [6.14, N-(4-((6-methyl-2-(pyrrolidin-1-yl)pyrimidin-4-yl)oxy)phenyl)-1H-indole-3-carboxamide], in data set [1], the “biological activity (cat-CHD1L inhibition and cell-based models)” value is “significant loss of activity”.
For the compound `Cc1cc(Nc2ccc(NC(=O)Cc3cc(Cl)nc4ccccc34)cc2)nc(N2CCCC2)n1` [6.31], in data set [2], the “metabolic stability to mouse liver microsomes” value (shortened to “metabolic stability”) is “increased the metabolic stability”.
Turning to `Cc1cc(Nc2ccc(NC(=O)Cc3cc(Br)cs3)cc2)nc(N2CCCC2)n1` [6.11, 2-(4-bromothiophen-2-yl)-N-(4-((6-methyl-2-(pyrrolidin-1-yl)pyrimidin-4-yl)amino)phenyl) acetamide], the “tolerability / gross toxicity” value in data set [3] (PO 75 mg/kg and 125 mg/kg 5-days/week over 30 days) is “no adverse gross toxicity”. For the same compound, the tumor volume entry in data set [3] (PO 75 mg/kg and 125 mg/kg 5-days/week over 30 days, from day 20, highly significant after 28 days, vs vehicle) was “significant decrease in tumor volume”. Further, the body weight result in data set [3] (during the treatment period, PO 28 days) is on record as “increased body weight”. Also, the “metabolic stability” value in data set [2] is “most metabolically stable; also recorded: increased the metabolic stability”. Also, the “biological activity (cat-CHD1L inhibition and cell-based models)” value in data set [1] is given as “most promising in vitro biological activity”.
On to `Cc1cc(Nc2ccc(NC(=O)c3c[nH]c4ccccc34)cc2)nc(N2CCCC2)n1` [6.4, N-(4-((6-methyl-2-(pyrrolidin-1-yl)pyrimidin-4-yl)amino)phenyl)-1H-indole-3-carboxamide], for which, in data set [2], the “metabolic stability” value is on record as “increased the metabolic stability”. Besides, the “cell-based antitumor activity (potency)” value in data set [4] is “maintained potency”.
For the compound `Cc1cc(Nc2ccc(NC(=O)/C=C/c3c[nH]c4ccccc34)cc2)nc(N2CCCC2)n1` [6.8, (E)-3-(1H-indol-3-yl)-N-(4-((6-methyl-2-(pyrrolidin-1-yl)pyrimidin-4-yl)amino)phenyl) acrylamide], the “biological activity (cat-CHD1L inhibition and cell-based models)” value in data set [1] is recorded as “restores activity”.
`Cc1cc(Nc2ccc(NC(=O)Cc3cccs3)cc2)nc(N2CCCC2)n1` [6.0, N-(4-((6-methyl-2-(pyrrolidine-1-yl)pyrimidin-4-yl)amino)phenyl)-2-(thiophen-2-yl)acetamide]: the CSC stemness result in data set [5] was “significantly inhibits CSC stemness”. The maximum tolerated dose in data set [6] (intraperitoneal (IP) daily over five days) is given as 50 mg/kg. Also, in data set [6] (mice, 50 mg/kg IP daily over five days), the liver toxicity result is “does not display any liver toxicity”.
As to `Cc1cc(Oc2ccc(NC(=O)Cc3cccs3)cc2)nc(N2CCCC2)n1` [6.13, N-(4-((6-methyl-2-(pyrrolidin-1-yl)pyrimidin-4-yl)oxy)phenyl)-2-(thiophen-2-yl)acetamide], the “biological activity (cat-CHD1L inhibition and cell-based models)” value in data set [1] is listed as “significant loss of activity”.
For `Cc1nc(N2CCCC2)nc(N(C)c2ccc(NC(=O)Cc3cccs3)cc2)c1F` [6.3, N-(4-((5-fluoro-6-methyl-2-(pyrrolidin-1-yl)pyrimidin-4-yl)(methyl)amino)phenyl)-2-(thiophen-2-yl)acetamide], in data set [1], the “biological activity (cat-CHD1L inhibition and cell-based models)” value is given as “loss of inhibitor activity; also recorded: diminished biological activity”.
For `O=C(Cc1cccs1)Nc1ccc(Nc2nc(N3CCCC3)ncc2F)cc1` [6.2, N-(4-((5-fluoro-2-(pyrrolidin-1-yl)pyrimidin-4-yl)amino)phenyl)-2-(thiophen-2-yl)acetamide], the “biological activity (cat-CHD1L inhibition and cell-based models)” value in data set [1] is reported as “loss of inhibitor activity”.
Same read-out and setting: with `COc1cnc(N2CCCC2)nc1Nc1ccc(NC(=O)Cc2cccs2)cc1` [6.10, N-(4-((5-methoxy-2-(pyrrolidin-1-yl)pyrimidin-4-yl)amino)phenyl)-2-(thiophen-2-yl)acetamide] the entry was “significant loss in activity”.
Same read-out and setting: then `Cc1nc(N2CCCC2)nc(Nc2ccc(NC(=O)Cc3cccs3)cc2)c1F` [6.1, N-(4-((5-fluoro-6-methyl-2-(pyrrolidin-1-yl)pyrimidin-4-yl)amino)phenyl)-2-(thiophen-2-yl)acetamide], with “loss of inhibitor activity; also recorded: significant loss in activity”.
Turning to `Cc1cc(Oc2ccc(NC(=O)Cc3cccs3)cc2)nc(Cl)n1` [6.12, N-(4-((2-chloro-6-methylpyrimidin-4-yl)oxy)phenyl)-2-(thiophen-2-yl)acetamide], the “biological activity (cat-CHD1L inhibition and cell-based models)” value in data set [1] was “significant loss of activity”.
`Cc1cc(Nc2ccc(NC(=O)Cc3c[nH]c4ccccc34)cc2)nc(N2CCCC2)n1` [6.5, 2-(1H-indol-3-yl)-N-(4-((6-methyl-2-(pyrrolidin-1-yl)pyrimidin-4-yl)amino)phenyl)acetamide]: in data set [7], the EcadPro-RFP promoter activity result is “upregulation” and the VimPro-GFP promoter activity result is “marked downregulation”. Besides, the “metabolic stability” value in data set [2] was “increased the metabolic stability”.
